Assay results published in patent US20230302022A1, “PREVENTING OR MITIGATING CHEMOTHERAPY INDUCED ALOPECIA USING VITAMIN D” (priority 2016, published 2023).

Tested on: Long Evans and Sprague Dawley rats
Test: Chemotherapy-induced alopecia (CIA) in the neonatal rat, topical calcitriol formulation
Assay type: in vivo
Description: Specifically, Long Evans and Sprague Dawley rats with pups were purchased from Harlan Laboratories, Inc. They were housed and fed according to applicable animal handling rules and regulations. Pups were allowed to acclimate for 48 hours prior to the start of experiments. […] Rats were isolated from their littermates and mother for 6-hour periods of time. Subsequently, the treated area was cleaned with soap and water and pups were returned to their litters. On day 13, rats either received etoposide (1.5 mg/kg daily for 3 days) or cyclophosphamide (CTX) (37.5 mg/kg once) or combination cyclophosphamide (35 mg/kg once) and doxorubicin (2.5 mg/kg daily for 3 days). All chemotherapies were purchased from Sigma and were given intraperitoneally (i.p.) in a total volume of 0.1 mL. Alopecia was recorded 10 days after the last dose of chemotherapy.

[1] = Long Evans rats, 0.2 μg total dose

C=C1/C(=C\C=C2/CCC[C@]3(C)[C@@H]([C@H](C)CCCC(C)(C)O)CC[C@@H]23)C[C@@H](O)C[C@@H]1O [Calcitriol, (5Z,7E)-9,10-secocholesta-5,7.10(19Hriene-1 a,33.25-triol]
protection from etoposide-induced alopecia (0.1 μg of calcitriol topically for 6 hours, daily for 6 days): partial localized protection | protection from cyclophosphamide-induced alopecia (0.3 μg calcitriol topically): full body protection | protection from etoposide-induced alopecia (0.3 μg calcitriol topically): total body protection | protection from CTX-doxorubicin combination chemotherapy-induced alopecia [1]: protects | protection from CTX-induced alopecia in rats injected with MIAC51 [1]: protects | protection from cyclophosphamide (CTX)-induced alopecia [1]: protects | protection from CIA in rats receiving etoposide (Sprague Dawley rats, topical formulation, two doses): protects from chemotherapy-induced alopecia (CIA) in a dose-dependent manner | protection against CIA in neonatal rat (about 0.2 μg (100 μL of 2 μg/mL topical solution)): protective | daily application prior to commencement of chemotherapy required to see any protective effect (rat model): at least four days | protection with 5 days of application prior to chemotherapy (rat model): moderate protection
